# Columns and labels:
# [1] = target: NC(11-55) (Human immunodeficiency virus type 1, UniProt P12493); test: NC inhibition assay (NC-induced cTAR DNA destabilization, fluorescence); format: biochemical, HIV-1; details: single point screening; positive = >25% inhibition at 100µM
# In short: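 Doubly labelled cTAR (0.1 µM, Alexa488/Dabcyl) pre-complexed with 1 µM Zn-loaded NC(11-55) for 15 min, then compound added for a further 15 min; run at 20 °C in Tris-HCl pH 7.5, 30 mM NaCl, 0.2 mM MgCl2. Fluorescence read at ex 480/em 520 nm. IC50 taken from dose-response fit of % inhibition of NC-induced fluorescence increase.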
# [2] = tested on: HeLa cells; test: HeLa Proliferation assay (CellTiter Glo); format: cell-based; details: 72 hours
# In short: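 Viability measured with CellTiter Glo after 72 h compound exposure (37 °C, 5% CO2, humidified) of HeLa cells seeded at 2000 per well in 10% FBS DMEM without phenol red and allowed 4 h recovery.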
Structure (SMILES),inhibition at 100 µM [1] [%],Proliferation assay HELA TD50 [2] [µM]
"C[C@H](NC(=O)c1nc(-c2cc(C(=O)OCc3ccccc3)ccn2)nc(O)c1O)C1CCCCC1 [Compound 71, benzyl (S)-2-(4-((1-cyclohexylethyl)carbamoyl)-5,6-dihydroxypyrimidin-2-yl)isonicotinate]",> 25,12.825
"C[C@H](NC(=O)c1nc(-c2ccc(C(=O)OCc3ccccc3)cn2)nc(O)c1O)C1CCCCC1 [Compound 70, benzyl (S)-6-(4-((1-cyclohexylethyl)carbamoyl)-5,6-dihydroxypyrimidin-2-yl)nicotinate]",> 25,4.1006
"CC(NC(=O)c1nc(-c2nccc3ccccc23)nc(O)c1O)C1CCC(F)(F)CC1 (stereo not shown) [Compound 90, N-(1-(4,4-difluorocyclohexyl)ethyl)-5,6-dihydroxy-2-(isoquinolin-1-yl)pyrimidine-4-carboxamide]",> 25,6.4522
"Cc1ccnc(-c2nc(O)c(O)c(C(=O)NC3(C4CCCCC4)CC3)n2)c1 [Compound 84, N-(1-cyclohexylcyclopropyl)-5,6-dihydroxy-2-(4-methylpyridin-2-yl)pyrimidine-4-carboxamide]",> 25,1.9245
"C[C@H](NC(=O)c1nc(-c2cc3ccccc3cn2)nc(O)c1O)C1CCCCC1 [Compound 72, (S)-N-(1-cyclohexylethyl)-5,6-dihydroxy-2-(isoquinolin-3-yl)pyrimidine-4-carboxamide]",> 25,3.4875
"C[C@@H](NC(=O)c1nc(-c2cc(C(=O)NCc3ccccc3)ccn2)nc(O)c1O)C1CCCCC1 [Compound 74, (R)-2-(4-(benzylcarbamoyl)pyridin-2-yl)-N-(1-cyclohexylethyl)-5,6-dihydroxypyrimidine-4-carboxamide]",> 25,3.6728
"C[C@H](NC(=O)c1nc(-c2ccc3ccccc3n2)nc(O)c1O)C1CCCCC1 [Compound 75, (S)-N-(1-cyclohexylethyl)-5,6-dihydroxy-2-(quinolin-2-yl)pyrimidine-4-carboxamide]",> 25,7.5355
"Cc1cc(-c2nc(O)c(O)c(C(=O)N[C@H](C)C3CCCCC3)n2)nc2ccccc12 [Compound 73, (R)-N-(1-cyclohexylethyl)-5,6-dihydroxy-2-(4-methylquinolin-2-yl)pyrimidine-4-carboxamide]",> 25,5.3719
